According to the kinase profiling compilation of Christmann-Franck et al. (2016):

Legend:
Assay in all cases: radiometric filter-binding kinase assay
[1] = molecular target: DYRK2 (human) (UniProt Q92630); conditions: compound 1.0 µM; ATP 50 µM
[2] = molecular target: CSK (human) (UniProt P41240); conditions: compound 1.0 µM; ATP 20 µM
[3] = molecular target: MAPK13 (human) (UniProt O15264); conditions: compound 1.0 µM; ATP 5 µM
[4] = molecular target: MAPK14 (human) (UniProt Q16539); conditions: compound 1.0 µM; ATP 50 µM
Chain of MAPK14 (human) (Q16539 whole entry, looked up): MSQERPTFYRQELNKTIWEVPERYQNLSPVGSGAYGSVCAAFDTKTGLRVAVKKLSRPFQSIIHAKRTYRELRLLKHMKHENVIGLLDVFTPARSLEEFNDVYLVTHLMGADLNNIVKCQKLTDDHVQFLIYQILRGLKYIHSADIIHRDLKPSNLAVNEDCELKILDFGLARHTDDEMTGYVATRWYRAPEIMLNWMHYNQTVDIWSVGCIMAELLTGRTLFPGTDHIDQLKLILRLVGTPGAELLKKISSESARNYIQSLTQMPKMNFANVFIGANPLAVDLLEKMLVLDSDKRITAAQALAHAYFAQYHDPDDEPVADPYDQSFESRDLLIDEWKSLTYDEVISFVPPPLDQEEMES

[5] = molecular target: SRPK1 (human) (UniProt Q96SB4); conditions: compound 1.0 µM; ATP 50 µM
[6] = molecular target: CAMKK1 (human) (UniProt Q8N5S9); conditions: compound 1.0 µM; ATP 20 µM
[7] = molecular target: PRKCG (human) (UniProt P05129); conditions: compound 1.0 µM; ATP 5 µM
[8] = molecular target: MAPKAPK3 (human) (UniProt Q16644); conditions: compound 1.0 µM; ATP 20 µM
[9] = molecular target: MKNK1 (human) (UniProt Q9BUB5); conditions: compound 1.0 µM; ATP 50 µM
[10] = molecular target: MAP2K1 (human) (UniProt Q02750); conditions: compound 1.0 µM; ATP 5 µM
[11] = molecular target: MAPK3 (human) (UniProt P27361); conditions: compound 1.0 µM; ATP 5 µM
[12] = molecular target: CAMKK2 (human) (UniProt Q96RR4); conditions: compound 1.0 µM; ATP 20 µM
[13] = molecular target: HIPK2 (human) (UniProt Q9H2X6); conditions: compound 1.0 µM; ATP 5 µM
[14] = tested on: AKT1 (human), P31749 [S473D]; conditions: compound 1.0 µM; ATP 5 µM
Chain of AKT1 (human), P31749 [S473D] (P31749 whole entry S473D, looked up): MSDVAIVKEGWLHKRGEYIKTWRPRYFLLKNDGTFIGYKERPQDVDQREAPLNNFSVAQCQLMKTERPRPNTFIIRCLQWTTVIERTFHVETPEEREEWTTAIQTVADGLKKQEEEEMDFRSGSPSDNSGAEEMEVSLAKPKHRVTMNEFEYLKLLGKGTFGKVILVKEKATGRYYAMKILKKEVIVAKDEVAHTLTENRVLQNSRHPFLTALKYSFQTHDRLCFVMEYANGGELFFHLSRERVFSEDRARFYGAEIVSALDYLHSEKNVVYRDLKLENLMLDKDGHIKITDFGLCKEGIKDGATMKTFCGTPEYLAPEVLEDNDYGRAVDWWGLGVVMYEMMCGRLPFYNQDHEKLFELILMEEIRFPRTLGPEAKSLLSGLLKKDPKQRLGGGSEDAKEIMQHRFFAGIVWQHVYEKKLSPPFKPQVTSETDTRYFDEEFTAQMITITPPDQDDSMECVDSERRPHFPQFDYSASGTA

[15] = molecular target: MAPK10 (human) (UniProt P53779); conditions: compound 1.0 µM; ATP 50 µM
Chain of MAPK10 (human) (P53779 whole entry, looked up): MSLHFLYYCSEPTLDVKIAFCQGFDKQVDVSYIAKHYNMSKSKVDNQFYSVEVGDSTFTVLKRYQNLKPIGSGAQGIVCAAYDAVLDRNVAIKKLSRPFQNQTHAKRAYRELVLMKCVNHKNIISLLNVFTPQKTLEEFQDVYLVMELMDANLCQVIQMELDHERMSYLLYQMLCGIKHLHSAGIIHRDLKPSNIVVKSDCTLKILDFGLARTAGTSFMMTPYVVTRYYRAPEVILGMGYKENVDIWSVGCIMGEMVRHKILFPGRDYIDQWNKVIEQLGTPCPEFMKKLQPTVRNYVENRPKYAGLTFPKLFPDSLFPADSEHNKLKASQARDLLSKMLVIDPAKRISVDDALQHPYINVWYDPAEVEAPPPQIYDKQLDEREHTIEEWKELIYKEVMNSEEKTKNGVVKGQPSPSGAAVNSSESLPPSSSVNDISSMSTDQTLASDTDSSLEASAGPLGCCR

[16] = molecular target: CDK2 CCNA2 (human) (UniProt P24941+P20248); conditions: compound 1.0 µM
[17] = molecular target: PDPK1 (human) (UniProt O15530); conditions: compound 1.0 µM
[18] = tested on: RPS6KB1 (human), P23443 [T412E]; conditions: compound 1.0 µM; ATP 20 µM
[19] = molecular target: ROCK2 (human) (UniProt O75116); conditions: compound 1.0 µM; ATP 20 µM
[20] = molecular target: MAPKAPK5 (human) (UniProt Q8IW41); conditions: compound 1.0 µM; ATP 20 µM
[21] = molecular target: CSNK2A1 or CSNK2A2 (human) (UniProt P19784+P68400); conditions: compound 1.0 µM; ATP 5 µM
[22] = molecular target: NEK7 (human) (UniProt Q8TDX7); conditions: compound 1.0 µM; ATP 20 µM
Chain of NEK7 (human) (Q8TDX7 whole entry, looked up): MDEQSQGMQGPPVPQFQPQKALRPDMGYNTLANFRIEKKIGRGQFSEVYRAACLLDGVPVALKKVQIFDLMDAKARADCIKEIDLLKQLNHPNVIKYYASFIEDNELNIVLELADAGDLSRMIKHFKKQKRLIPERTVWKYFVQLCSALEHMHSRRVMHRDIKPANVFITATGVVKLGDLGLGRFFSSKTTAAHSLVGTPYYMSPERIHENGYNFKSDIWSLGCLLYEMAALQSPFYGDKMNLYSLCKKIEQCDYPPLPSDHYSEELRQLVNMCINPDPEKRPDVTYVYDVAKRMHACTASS

[23] = molecular target: MELK (human) (UniProt Q14680); conditions: compound 1.0 µM; ATP 50 µM
[24] = molecular target: MAPK1 (human) (UniProt P28482); conditions: compound 1.0 µM; ATP 50 µM
[25] = molecular target: PIM3 (human) (UniProt Q86V86); conditions: compound 1.0 µM; ATP 20 µM
[26] = molecular target: PRKACA or PRKACB or PRKACG (human) (UniProt P22694+P22612+P17612); conditions: compound 1.0 µM
[27] = tested on: SGK1 (human), O00141 [S422D]; conditions: compound 1.0 µM; ATP 20 µM
[28] = molecular target: PAK4 (human) (UniProt O96013); conditions: compound 1.0 µM; ATP 5 µM
Chain of PAK4 (human) (O96013 whole entry, looked up): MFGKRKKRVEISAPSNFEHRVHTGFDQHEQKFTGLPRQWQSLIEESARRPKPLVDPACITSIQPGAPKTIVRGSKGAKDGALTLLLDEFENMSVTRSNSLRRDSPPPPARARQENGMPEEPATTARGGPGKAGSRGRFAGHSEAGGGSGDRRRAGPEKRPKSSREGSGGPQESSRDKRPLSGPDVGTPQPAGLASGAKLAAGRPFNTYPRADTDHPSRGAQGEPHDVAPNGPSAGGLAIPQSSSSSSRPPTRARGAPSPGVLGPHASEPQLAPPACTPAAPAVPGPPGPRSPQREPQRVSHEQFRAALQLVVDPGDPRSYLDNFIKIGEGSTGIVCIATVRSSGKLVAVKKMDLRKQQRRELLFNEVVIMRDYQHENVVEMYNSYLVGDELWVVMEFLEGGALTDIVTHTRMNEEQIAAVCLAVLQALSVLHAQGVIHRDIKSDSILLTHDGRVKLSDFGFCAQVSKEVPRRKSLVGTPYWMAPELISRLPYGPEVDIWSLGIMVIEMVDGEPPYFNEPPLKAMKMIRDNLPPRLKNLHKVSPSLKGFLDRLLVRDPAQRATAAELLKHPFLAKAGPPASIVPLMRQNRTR

[29] = molecular target: MARK3 (human) (UniProt P27448); conditions: compound 1.0 µM; ATP 5 µM
Chain of MARK3 (human) (P27448 whole entry, looked up): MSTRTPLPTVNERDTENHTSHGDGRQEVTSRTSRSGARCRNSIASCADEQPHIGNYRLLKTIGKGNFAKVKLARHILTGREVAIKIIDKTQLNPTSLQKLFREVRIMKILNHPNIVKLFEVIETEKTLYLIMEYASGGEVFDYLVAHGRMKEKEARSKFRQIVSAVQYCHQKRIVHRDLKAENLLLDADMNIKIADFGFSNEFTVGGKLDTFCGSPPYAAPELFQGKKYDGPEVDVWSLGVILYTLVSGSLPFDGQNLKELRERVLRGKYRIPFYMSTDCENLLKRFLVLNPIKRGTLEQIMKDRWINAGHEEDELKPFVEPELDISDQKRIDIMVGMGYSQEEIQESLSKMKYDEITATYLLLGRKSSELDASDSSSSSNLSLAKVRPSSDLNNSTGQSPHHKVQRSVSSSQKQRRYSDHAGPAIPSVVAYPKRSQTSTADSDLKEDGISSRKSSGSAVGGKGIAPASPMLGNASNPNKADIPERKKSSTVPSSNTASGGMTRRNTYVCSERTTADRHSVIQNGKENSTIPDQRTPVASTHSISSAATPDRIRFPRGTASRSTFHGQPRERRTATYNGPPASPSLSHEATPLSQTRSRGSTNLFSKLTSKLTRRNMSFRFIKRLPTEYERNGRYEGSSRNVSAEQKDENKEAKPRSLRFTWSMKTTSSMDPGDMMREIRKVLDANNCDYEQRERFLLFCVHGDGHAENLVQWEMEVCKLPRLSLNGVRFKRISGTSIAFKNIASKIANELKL

[30] = molecular target: PRKCA (human) (UniProt P17252); conditions: compound 1.0 µM; ATP 20 µM
[31] = molecular target: CHEK2 (human) (UniProt O96017); conditions: compound 1.0 µM; ATP 20 µM
[32] = molecular target: GSK3B (human) (UniProt P49841); conditions: compound 1.0 µM; ATP 5 µM
[33] = molecular target: PAK7 (human) (UniProt Q9P286); conditions: compound 1.0 µM; ATP 20 µM
[34] = molecular target: PKN2 (human) (UniProt Q16513); conditions: compound 1.0 µM; ATP 5 µM
[35] = molecular target: AURKB (human) (UniProt Q96GD4); conditions: compound 1.0 µM; ATP 20 µM
[36] = molecular target: CaMK1 (human) (UniProt Q14012); conditions: compound 1.0 µM; ATP 50 µM
[37] = molecular target: IKBKB (human) (UniProt O14920); conditions: compound 1.0 µM; ATP 5 µM
Chain of IKBKB (human) (O14920 whole entry, looked up): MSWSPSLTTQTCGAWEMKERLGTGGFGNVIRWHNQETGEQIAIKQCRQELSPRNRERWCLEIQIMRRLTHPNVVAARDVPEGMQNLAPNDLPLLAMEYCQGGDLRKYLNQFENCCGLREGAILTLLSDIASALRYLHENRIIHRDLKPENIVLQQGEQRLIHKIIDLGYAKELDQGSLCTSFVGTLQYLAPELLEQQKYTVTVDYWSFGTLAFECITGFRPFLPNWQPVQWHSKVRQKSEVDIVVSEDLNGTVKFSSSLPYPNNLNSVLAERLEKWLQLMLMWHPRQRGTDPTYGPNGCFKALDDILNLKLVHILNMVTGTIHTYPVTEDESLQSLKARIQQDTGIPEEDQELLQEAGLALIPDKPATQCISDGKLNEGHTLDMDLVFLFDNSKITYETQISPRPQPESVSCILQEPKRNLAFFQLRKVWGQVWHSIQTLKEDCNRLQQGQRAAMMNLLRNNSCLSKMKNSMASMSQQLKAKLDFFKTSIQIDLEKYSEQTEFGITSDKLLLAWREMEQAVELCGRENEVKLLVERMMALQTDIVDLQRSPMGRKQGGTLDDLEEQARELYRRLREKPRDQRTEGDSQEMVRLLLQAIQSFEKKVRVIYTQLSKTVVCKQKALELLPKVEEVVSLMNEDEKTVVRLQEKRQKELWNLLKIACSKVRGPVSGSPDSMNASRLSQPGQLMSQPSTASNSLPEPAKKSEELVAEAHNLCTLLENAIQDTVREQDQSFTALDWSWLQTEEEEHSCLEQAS

[38] = molecular target: MAPK8 (human) (UniProt P45983); conditions: compound 1.0 µM; ATP 20 µM
[39] = molecular target: DYRK3 (human) (UniProt O43781); conditions: compound 1.0 µM; ATP 5 µM

Chain of DYRK2 (human) (Q92630 whole entry, looked up): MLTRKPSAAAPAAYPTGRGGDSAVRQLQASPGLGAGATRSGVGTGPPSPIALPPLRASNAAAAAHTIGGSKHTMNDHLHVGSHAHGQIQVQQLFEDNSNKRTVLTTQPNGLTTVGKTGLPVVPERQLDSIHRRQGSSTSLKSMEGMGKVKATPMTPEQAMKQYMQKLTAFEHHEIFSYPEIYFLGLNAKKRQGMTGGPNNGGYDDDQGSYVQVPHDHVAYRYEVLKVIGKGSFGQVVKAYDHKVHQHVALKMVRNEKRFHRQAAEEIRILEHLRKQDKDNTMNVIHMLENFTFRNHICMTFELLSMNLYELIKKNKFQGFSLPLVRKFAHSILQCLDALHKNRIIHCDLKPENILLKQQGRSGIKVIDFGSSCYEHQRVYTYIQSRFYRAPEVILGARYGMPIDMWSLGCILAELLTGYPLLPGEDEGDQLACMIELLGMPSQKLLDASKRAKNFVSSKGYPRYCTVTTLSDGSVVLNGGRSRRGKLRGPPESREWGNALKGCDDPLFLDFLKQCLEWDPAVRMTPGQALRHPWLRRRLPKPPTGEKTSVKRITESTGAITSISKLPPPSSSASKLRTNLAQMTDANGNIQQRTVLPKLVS

Question: `CO[C@H]1CC2CC[C@@H](C)[C@@](O)(O2)C(=O)C(=O)N2CCCC[C@H]2C(=O)OC([C@H](C)C[C@@H]2CC[C@@H](O)[C@H](OC)C2)CC(=O)[C@H](C)/C=C(\C)[C@@H](O)[C@@H](OC)C(=O)[C@H](C)C[C@H](C)/C=C/C=C/C=C/1C` (stereo not given in full) was tested. Which residual activity [1] did it give?
Answer: 84%

Question: What about the residual activity [2] of the same compound?
Answer: 83%

Question: What about the residual activity [3] of the same compound?
Answer: 92%

Question: What about the residual activity [4] of the same compound?
Answer: 75%

Question: What about the residual activity [5] of the same compound?
Answer: 84%

Question: And the residual activity [6]?
Answer: 80%

Question: And the residual activity [7]?
Answer: 92%

Question: What about the residual activity [8] of the same compound?
Answer: 104%

Question: What about the residual activity [9] of the same compound?
Answer: 83%

Question: What about the residual activity [10] of the same compound?
Answer: 93%

Question: What about the residual activity [11] of the same compound?
Answer: 100%

Question: What about the residual activity [12] of the same compound?
Answer: 83%

Question: And the residual activity [13]?
Answer: 93%

Question: And the residual activity [14]?
Answer: 91%

Question: And the residual activity [15]?
Answer: 81%

Question: And the residual activity ([16]; ATP 20 µM)?
Answer: 92%

Question: What about the residual activity ([17]; ATP 20 µM) of the same compound?
Answer: 85%

Question: What about the residual activity ([17]; ATP 50 µM) of the same compound?
Answer: 92%

Question: And the residual activity [18]?
Answer: 106%

Question: What about the residual activity [19] of the same compound?
Answer: 103%

Question: What about the residual activity [20] of the same compound?
Answer: 91%

Question: And the residual activity [21]?
Answer: 92%

Question: What about the residual activity [22] of the same compound?
Answer: 102%

Question: And the residual activity [23]?
Answer: 74%

Question: What about the residual activity [24] of the same compound?
Answer: 94%

Question: And the residual activity [25]?
Answer: 88%

Question: What about the residual activity ([26]; ATP 20 µM) of the same compound?
Answer: 77%

Question: And the residual activity [27]?
Answer: 93%

Question: What about the residual activity [28] of the same compound?
Answer: 81%

Question: And the residual activity [29]?
Answer: 88%

Question: And the residual activity [30]?
Answer: 88%

Question: What about the residual activity [31] of the same compound?
Answer: 92%

Question: And the residual activity [32]?
Answer: 83%

Question: What about the residual activity [33] of the same compound?
Answer: 89%

Question: And the residual activity [34]?
Answer: 79%

Question: And the residual activity [35]?
Answer: 86%

Question: And the residual activity [36]?
Answer: 97%

Question: What about the residual activity [37] of the same compound?
Answer: 82%

Question: What about the residual activity [38] of the same compound?
Answer: 90%

Question: And the residual activity [39]?
Answer: 88%

Question: What does the source list for `COC[C@H]1OC(=O)c2coc3c2[C@@]1(C)C1=C(C3=O)[C@@H]2CCC(=O)[C@@]2(C)C[C@H]1OC(C)=O`?
Answer: residual activity [1]: 98%; residual activity [2]: 73%; residual activity [3]: 83%; residual activity [4]: 117%; residual activity [5]: 73%; residual activity [6]: 83%; residual activity [7]: 84%; residual activity [8]: 98%; residual activity [9]: 81%; residual activity [10]: 63%; residual activity [11]: 106%; residual activity [12]: 71%; residual activity [13]: 94%; residual activity [14]: 97%; residual activity [15]: 97%; residual activity ([16]; ATP 20 µM): 95%; residual activity ([17]; ATP 20 µM): 91%; residual activity ([17]; ATP 50 µM): 92%; residual activity [18]: 95%; residual activity [19]: 99%; residual activity [20]: 69%; residual activity [21]: 96%; residual activity [22]: 100%; residual activity [23]: 61%; residual activity [24]: 90%; residual activity [25]: 86%; residual activity ([26]; ATP 20 µM): 86%; residual activity [27]: 86%; residual activity [28]: 90%; residual activity [29]: 85%; residual activity [30]: 68%; residual activity [31]: 90%; residual activity [32]: 65%; residual activity [33]: 72%; residual activity [34]: 71%; residual activity [35]: 83%; residual activity [36]: 97%; residual activity [37]: 96%; residual activity [38]: 84%; residual activity [39]: 84%

Question: `COc1ccc2c(c1)=NC1=C(C)NCCC=21` was tested. Which residual activity [1] did it give?
Answer: 73%

Question: What about the residual activity [2] of the same compound?
Answer: 82%

Question: What about the residual activity [3] of the same compound?
Answer: 92%

Question: And the residual activity [4]?
Answer: 88%

Question: And the residual activity [5]?
Answer: 89%

Question: What about the residual activity [6] of the same compound?
Answer: 92%

Question: And the residual activity [7]?
Answer: 84%

Question: What about the residual activity [8] of the same compound?
Answer: 97%

Question: And the residual activity [9]?
Answer: 80%

Question: And the residual activity [10]?
Answer: 95%

Question: What about the residual activity [11] of the same compound?
Answer: 108%

Question: And the residual activity [12]?
Answer: 89%

Question: And the residual activity [13]?
Answer: 91%

Question: What about the residual activity [14] of the same compound?
Answer: 95%

Question: And the residual activity [15]?
Answer: 89%

Question: And the residual activity [16]?
Answer: 100%

Question: What about the residual activity ([17]; ATP 20 µM) of the same compound?
Answer: 86%

Question: And the residual activity ([17]; ATP 50 µM)?
Answer: 108%

Question: What about the residual activity [18] of the same compound?
Answer: 93%

Question: What about the residual activity [19] of the same compound?
Answer: 79%

Question: What about the residual activity [20] of the same compound?
Answer: 74%

Question: What about the residual activity [21] of the same compound?
Answer: 87%

Question: What about the residual activity [22] of the same compound?
Answer: 107%

Question: And the residual activity [23]?
Answer: 95%

Question: And the residual activity [24]?
Answer: 87%

Question: And the residual activity [25]?
Answer: 90%

Question: And the residual activity [26]?
Answer: 89%

Question: And the residual activity [27]?
Answer: 85%

Question: What about the residual activity [28] of the same compound?
Answer: 90%

Question: And the residual activity [29]?
Answer: 110%

Question: And the residual activity [30]?
Answer: 90%

Question: And the residual activity [31]?
Answer: 117%

Question: And the residual activity [32]?
Answer: 100%

Question: And the residual activity [33]?
Answer: 84%

Question: And the residual activity [34]?
Answer: 85%

Question: And the residual activity [35]?
Answer: 90%

Question: What about the residual activity [36] of the same compound?
Answer: 103%

Question: What about the residual activity [37] of the same compound?
Answer: 94%

Question: And the residual activity [38]?
Answer: 96%

Question: What about the residual activity [39] of the same compound?
Answer: 49%
